Laboratory results reported in PMC9583845, “Characterization of the chicken melanocortin 5 receptor and its potential role in regulating hepatic glucolipid metabolism” (Frontiers in Physiology, 2022).
“Also recorded” adds a separate entry of the source. Read-outs that look alike come from different tables or passages of the source. One block for each compound: values may come before it.

Assays:
[1] = tested on: ELOVL6 mRNA, primary chicken hepatocytes; assay: ELOVL6 mRNA in primary chicken hepatocytes, RT-qPCR; assay type: cell-based; conditions: 6 h, N = 4, Figures 8A-C
Protocol: (§1) To evaluate the effect of ACTH1-39 on chicken liver, the chicken hepatocytes were prepared and maintained as a monolayer culture. Briefly, one-month-old male chicken hepatocytes were isolated by perfusion of a liver with Ca^2+-free KRB buffer to remove blood cells, and being digested with 0.25% collagenase-I for 10 min. Hepatocytes were obtained following filtering and washing using M199 medium. Then the hepatocytes were plated in a Corning CellBIND 48-well microplate (Corning, NY, cat. no.3338) with M199 medium containing 100 U/ml penicillin and […] streptomycin (Gibco), 5 μg/ml bovine insulin (Sigma), and 5% FBS at 37°C in a 5% CO2 atmosphere. To adhere to the wall, the cells were incubated on the 48-well plate for 4 h.
(§2) For quantitative real-time PCR, primary cultured chicken hepatocytes were treated with various concentrations of ACTH1-39 (or other composition) at 37°C for 6 h. The relative amount of mRNA was calculated using the comparative Ct method. Chicken β-actin gene was used as the reference gene. Amplification of specific transcripts was confirmed by analyzing the melting curve profile performed at the end of each run and by determining the size of the PCR products using agarose electrophoresis and ethidium bromide staining.

[2] = tested on: THRSPA mRNA, primary chicken hepatocytes; assay: THRSPA mRNA in primary chicken hepatocytes, RT-qPCR; assay type: cell-based; conditions: 6 h, N = 4, Figures 8D-F
Protocol: as §1, §2

[3] = tested on: MC5R mRNA, primary chicken hepatocytes; assay: MC5R mRNA in primary chicken hepatocytes, RT-qPCR; assay type: cell-based; conditions: primary chicken hepatocytes, 6 h, N = 4, vs β-actin, Figures 6C-E
Protocol: as §1, with “h. For quantitative real-time PCR, primary cultured chicken hepatocytes were treated with various concentrations of ACTH1-39 (or other composition) at 37°C for 6 h. The relative amount of mRNA was calculated using the comparative Ct method. Chicken β-actin gene was used as the reference gene. Amplification of specific transcripts was confirmed by analyzing the melting curve profile performed at the end of each run and by determining the size of the PCR products using agarose electrophoresis and ethidium bromide staining.” for “h.”

[4] = tested on: AC/cAMP/PKA signaling (cMC5R); assay: Inhibition of ACTH- or α-MSH-stimulated luciferase activity in CHO cells expressing cMC5R; assay type: cell-based, chicken; conditions: for inhibition of ACTH-stimulated luciferase activity: inhibitor (H89 10 μM, MDL 5 μM) added 0.5 h before ACTH (10 nM, 6 h), Figure 2E; for inhibition of α-MSH-stimulated luciferase activity: inhibitor (H89 10 μM, MDL 5 μM) added 0.5 h before α-MSH (10 nM, 6 h), Figure 2F
Protocol: (§3) In brief, CHO cells were cultured on a six-well plate (Nunc, Roskilde, Denmark) and grown for 24 h before transfection. The cells were then transfected with a mixture containing 700 ng pGL3-CRE-Luciferase reporter construct, 200 ng of receptor expression plasmid (or empty pcDNA3.1 vector as a negative control), 20 ng of pRL-TK construct (containing a Renilla luciferase gene, used as an internal control), and 2 μl jetPRIME transfection reagent (Polyplus Transfection, Illkirch, France) in 200 μL buffer. Twenty-four hours later, CHO cells were sub-cultured into a 96-well plate at 37°C for an additional 24 h before treatment. After removal of the medium from the 96-well plate, the cells were treated with 100 μl ligand-containing medium (or ligand-free medium) for 6 h. Finally, CHO cells were lysed with 1 × passive lysis buffer for luciferase assay (Promega) and the luciferase activity of the cell lysate was measured by a Multimode Microplate Reader (TriStar LB941, EG&G Berthold, Germany) according to the manufacturer’s instruction.
To test whether cMRAP1 and cMRAP2 can alter the pharmacological properties of cMC5R, CHO cells co-expressing MC5R and cMRAP1/cMRAP2 were treated with chicken ACTH1–39/α-MSH, and the relative potential of these two peptides to activate the receptor was also determined using the pGL3-CRE-luciferase reporter system. At the same time, H89 (a PKA inhibitor, 10 μM) and MDL12330 A (an AC inhibitor, 5 μM) were used to further determine the signal pathways activated by ACTH1-39/α-MSH.

chicken MC5R [5] = molecular target: T1, chicken MC5R (Gallus gallus, UniProt O73671); set-up: method as in 3 sources, ref Ling et al., 2004 ||| ref Dores et al., 2020 ||| ref Schioth et al., 1997; Ling et al., 2004; conditions: cited from earlier work; for ability of hACTH1-39 vs hACTH1-24 to activate chicken MC5R: ref Schioth et al., 1997, Ling et al.; for ability of hACTH1-39 vs hACTH1-24 to activate chicken MC5R / EC50 values / potency at chicken MC5R compared (in words): 2004; for EC50 values / potency at chicken MC5R compared (in words): human α-MSH vs ACTH1-24, ref Ling et al.
T1 sequence (O73671 1-325): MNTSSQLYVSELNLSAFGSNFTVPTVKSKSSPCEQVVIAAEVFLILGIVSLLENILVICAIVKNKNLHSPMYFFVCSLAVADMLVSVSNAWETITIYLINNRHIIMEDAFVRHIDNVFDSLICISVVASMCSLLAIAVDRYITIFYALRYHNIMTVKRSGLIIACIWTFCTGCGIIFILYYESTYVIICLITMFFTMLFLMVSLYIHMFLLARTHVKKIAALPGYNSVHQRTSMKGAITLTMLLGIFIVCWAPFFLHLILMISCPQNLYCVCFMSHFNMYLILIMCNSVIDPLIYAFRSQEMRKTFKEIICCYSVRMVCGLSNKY

human MC5R = conditions: ref Schioth et al., 1997; Ling et al., 2004; cited from earlier work
Excerpt: The luciferase reporter system was then employed to investigate the signal pathway of MC5R coupling. […] Human peptides have previously been ...

chicken MC5R + MRAP2 = chicken MC5R + MRAP2 (Gallus gallus, UniProt O73671); set-up: method as in Thomas et al., 2018; conditions: ref Thomas et al., 2018; cited from earlier work
Sequence of chicken MC5R + MRAP2 (O73671 1-325): as above
Sequence of chicken MC5R + MRAP2 (A0A140B2F4 1-206 partner): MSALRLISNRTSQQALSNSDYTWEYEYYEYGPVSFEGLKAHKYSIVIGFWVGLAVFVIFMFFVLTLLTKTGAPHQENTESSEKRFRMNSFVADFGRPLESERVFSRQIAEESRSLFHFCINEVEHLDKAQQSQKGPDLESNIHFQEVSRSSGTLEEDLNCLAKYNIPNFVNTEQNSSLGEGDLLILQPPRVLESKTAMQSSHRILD

MC5R orthologs + MRAP1 = conditions: ref Dores et al., 2018, Barney et al., 2019, 2020, Hoglin et al., 2022; cited from earlier work
Excerpt: (§4) Since the R15K and I20 V substitutions in chicken and human ACTH occur in/near the KKRRP motif (Figure 2A), it might lead to different regulatory effects o ...

chicken MC5R + MRAP1 = chicken MC5R + MRAP1 (Gallus gallus, UniProt O73671); conditions: 2020, cited from earlier work; for effect of MRAP1 on cMC5R sensitivity: CHO cells, ref Thomas et al., 2018, Dores et al.
Sequence of chicken MC5R + MRAP1 (O73671 1-325): as the sequence (O73671 1-325) above
Excerpt: as §4

chicken MC2R + MRAP1 = conditions: co-expressed with MRAP1 in CHO cells; ref Barlock et al., 2014; cited from earlier work
Excerpt: In the chicken genome, there are five paralogous MCRs and two MRAPs ([Ling et al., 2004]; [Barlock et al., 2014]; [Zhang et al., 2017]; [Thomas et al., 2018]). In recent years, the pharmacological characterization and physiological activity of chicken MCRs (cMCRs) have been widely explored ([Scanes and Pierzchala-Koziec, 2021]). […] MC1R of dark-feathered chickens with a Glu to Lys mutation at position 92 show ...

chicken MC5R [6] = molecular target: T1, chicken MC5R; assay: pGL3-CRE-luciferase reporter assay, CHO cells expressing chicken MC5R; assay type: cell-based; conditions: for ability to activate / sensitivity of cMC5R (in words, ranking): CHO cells expressing cMC5R; for EC50: Figure 2B, CHO cells transiently expressing cMC5R, 10^−12–10^−6 M, 6 h, mean ± SEM of three replicates (N = 3), representative of three independent experiments, read-out: EC50 (activation of cMC5R)
Excerpt: All chemicals were purchased from Sigma-Aldrich (St. Louis, MO, United States) and the restriction enzymes were obtained from TaKaRa (Dalian, China). […] All primers used in this study were synthesized by Beijing Genome Institute (BGI, China) and listed in Supplementary Table 1.
The expression plasmids encoding MC5R, MRAP1 and MRAP2 were established by cloning their entire open reading frame (ORF) into the pcDNA3.1 (+) expression vector (Invitrogen).
as §3, with “The” for “In brief, CHO cells were cultured on a six-well plate (Nunc, Roskilde, Denmark) and grown for 24 h before transfection. The”, “Twenty-four hours later, CHO cells were sub-cultured into a 96-well plate at 37°C for an additional 24 h before treatment.” left out
All statistical analysis was performed using GraphPad Prism 9 (Graph Pad Software Inc., San Diego, CA). The dose-response curves were constructed using nonlinear regression models. Student’s test was used to compare two groups, for more than two groups one-way ANOVA was performed followed by Dunnett’s test. To validate our results, all in-vitro experiments were repeated three times, and representative data are reported.

chicken MC5R F254A = conditions: ref Min et al., 2019; cited from earlier work
chicken MC5R D204A = conditions: ref Min et al., 2019; cited from earlier work
hMC5R + MRAP2 = conditions: in vitro; ref Chan et al., 2009; cited from earlier work
Excerpt: Our results were consistent with previous results. […] In zebrafish, MRAP2a decreased the surface expression and efficacy of MC5Ra/MC5Rb, but not MRAP2b, in the same manner as mouse MRAP2 did ([Zhu et al., 2019]). In ricefield eel (Monopterus albus), two isoforms of MRAP2 (maMRAP2X1 and maMRAP2X2) significa ...

chicken MC5R D119A = conditions: ref Min et al., 2019; cited from earlier work

Compound: C=C[C@@]1(C)CC(=O)[C@]2(O)[C@@]3(C)[C@@H](O)CCC(C)(C)[C@@H]3[C@H](O)[C@H](OC(C)=O)[C@@]2(C)O1 [forskolin]
ELOVL6 mRNA expression [1]: did not affect the expression
ELOVL6 mRNA expression ([1]; listed as Forskolin): not affected
THRSPA mRNA expression [2]: did not affect the expression
THRSPA mRNA expression ([2]; listed as Forskolin): not affected
MC5R mRNA abundance (in words) [3]: significantly increased MC5R mRNA abundance; also recorded: enhance the expression of MC5R in cultured hepatocytes in a dose-dependent manner

Compound: O=S(=O)(NCCNC/C=C/c1ccc(Br)cc1)c1cccc2cnccc12 [H89]
inhibition of ACTH-stimulated luciferase activity [4]: significantly inhibit
inhibition of α-MSH-stimulated luciferase activity [4]: significantly inhibit

Compound: hACTH1-39: human ACTH1-39 (SYSMEHFRWGKPVGKKRRPVKVYPNGAEDESAEAFPLEF; Corticotropin; UniProt P01189 138-176, looked up)
ability of hACTH1-39 vs hACTH1-24 to activate chicken MC5R (chicken MC5R [5]): no different
ability of hACTH1-39 vs hACTH1-24 to activate human MC5R (human MC5R): no different

Compound: human ACTH1-24: shortened form of hACTH1-39 used in cited studies
effect of MRAP2 on cMC5R sensitivity (chicken MC5R + MRAP2): no influence on cMC5R sensitivity to human ACTH1–24
effect of MRAP1 co-expression on sensitivity of MC5R orthologs (MC5R orthologs + MRAP1): increase sensitivity to ACTH1-24
effect of MRAP1 on cMC5R sensitivity (chicken MC5R + MRAP1): improved chicken MC5R sensitivity to human ACTH1-24
effect of MRAP1 on cMC5R sensitivity (chicken MC5R + MRAP1; listed as hACTH1–24): significantly increased the sensitivity of cMC5R to hACTH1–24
increase of MC5R sensitivity to hACTH1–24 with cMRAP1 (chicken MC5R + MRAP1; KKRRP motif of hACTH1–24 necessary, ref Dores et al.): ~1,000 fold
EC50 values / potency at chicken MC5R compared (in words) (chicken MC5R [5]): equal potency for chicken MC5R
EC50 values / potency at chicken MC5R compared (in words) (chicken MC5R [5]; listed as ACTH1-24): equivalent
ability of hACTH1-39 vs hACTH1-24 to activate chicken MC5R (chicken MC5R [5]): no different
EC50 compared, hACTH1-24 vs srACTH1–24 (chicken MC5R [5]; srACTH1–24 has R15 and I20, ref Dores et al., 2020): no statistical differences in the EC50 values
ability of hACTH1-39 vs hACTH1-24 to activate human MC5R (human MC5R): no different
activation of cMC2R (chicken MC2R + MRAP1): can be activated by ACTH1-24

ability to activate / sensitivity of cMC5R (in words, ranking) (chicken MC5R [6]): ACTH1-39 ≈ α-MSH > β-MSH > γ-MSH
EC50 (chicken MC5R [6]): 0.144 ± 0.0154 µM
Compound: Ac-YVMSHFRWNKF-NH2 [γ-MSH]

Compound: Cl.c1ccc(C2CCCC2NC2=NCCCCCCCCCCC2)cc1 (centres unmarked) [MDL12330 A]
inhibition of ACTH-stimulated luciferase activity [4]: significantly inhibit
inhibition of α-MSH-stimulated luciferase activity [4]: significantly inhibit

ability to activate / sensitivity of cMC5R (in words, ranking) (chicken MC5R [6]): ACTH1-39 ≈ α-MSH > β-MSH > γ-MSH
EC50 (chicken MC5R [6]): 0.0387 ± 0.00651 µM
Compound: H-DGGSYRMRHFRWHAPLKD-OH [β-MSH]

Compound: Nc1ncnc2c1nc(Br)n2[C@@H]1O[C@@H]2COP(=O)(O)O[C@H]2[C@H]1O [8-Br-cAMP]
ELOVL6 mRNA expression [1]: not affected; also recorded: did not affect the expression
THRSPA mRNA expression [2]: not affected; also recorded: did not affect the expression
MC5R mRNA abundance (in words) [3]: dose-dependent increase in MC5R mRNA abundance; also recorded: enhance the expression of MC5R in cultured hepatocytes in a dose-dependent manner

Compound: NDP-MSH
reactivity of F254A mutant (chicken MC5R F254A): significantly reduced the reactivity
response of D204A mutant (chicken MC5R D204A): completely unresponsive
efficacy at hMC5R with MRAP2 (hMC5R + MRAP2): reduced the efficacy of hMC5R to NDP-MSH
response of D119A mutant (chicken MC5R D119A): completely unresponsive

Compound: SHU9119
response of D204A mutant (chicken MC5R D204A): completely unresponsive
response of D119A mutant (chicken MC5R D119A): completely unresponsive
